Reference: ChEMBL document CHEMBL5154732, “Discovery of indol-6-yl-pyrrolo[2,3-c]pyridin-7-one derivatives as bromodomain-containing protein 4 (BRD4) inhibitors for the treatment of kidney fibrosis” (Eur J Med Chem, 2022)
The source made the active and inactive calls. The rule behind the calls is not given here.

Tests used:
[1] = molecular target: Bromodomain-containing protein 4 (Homo sapiens, UniProt O60885); assay: Inhibition of His-tagged […] recombinant BRD4 (unknown origin) (21 to 153 residues) using SGRGK(Ac)GGK(Ac)GLGK(Ac)GGAK(Ac)RHRK(Biotin)-OH as substrate measured after 1 hr by HTRF assay
Mus musculus [2] = assay: Nephroprotective activity against unilateral ureteral obstruction kidney injury C57BL/6J mouse model assessed as decreased tubular injury score at 100 mg/kg, ip administered for 8 consecutive days by H & E staining based assay; type: functional, organism-based; details: time 8.0 day
Mus musculus [3] = assay: Nephroprotective activity against unilateral ureteral obstruction kidney injury C57BL/6J mouse model assessed as decreased kidney damage at 100 mg/kg, ip administered for 8 consecutive days by H & E staining based assay; type: functional, organism-based; details: time 8.0 day
Mus musculus [4] = assay: Nephroprotective activity against unilateral ureteral obstruction kidney injury C57BL/6J mouse model assessed as decreased fibrotic scores at 100 mg/kg, ip administered for 8 consecutive days by Masson's staining based assay; type: functional, organism-based; details: time 8.0 day
Mus musculus [5] = assay: Anti-fibrotic activity against unilateral ureteral obstruction kidney injury C57BL/6J mouse model assessed as suppression of UUO-induced alpha-SMA expression in kidney at 100 mg/kg, ip administered daily measured after 7 days by immunohistochemistry staining analysis; type: functional, organism-based; details: time 7.0 day
[6] = Volume of distribution at steady state in ICR mouse at 2 mg/kg, iv measured at 0.083 to 24 hrs by LC-MS/MS analysis; type: ADME, organism-based; details: in vivo, time 0.083-24 hrs, read-out: Vdss
[7] = molecular target: Bromodomain-containing protein 2 (Homo sapiens, UniProt P25440); assay: Inhibition of His-tagged recombinant BRD2 (unknown origin) (11 to 162 residues) using SGRGK(Ac)GGK(Ac)GLGK(Ac)GGAK(Ac)RHRK(Biotin)-OH as substrate measured after 1 hr by HTRF assay
Bromodomain-containing protein 2, sequence (P25440 whole entry, the tested form may be a part): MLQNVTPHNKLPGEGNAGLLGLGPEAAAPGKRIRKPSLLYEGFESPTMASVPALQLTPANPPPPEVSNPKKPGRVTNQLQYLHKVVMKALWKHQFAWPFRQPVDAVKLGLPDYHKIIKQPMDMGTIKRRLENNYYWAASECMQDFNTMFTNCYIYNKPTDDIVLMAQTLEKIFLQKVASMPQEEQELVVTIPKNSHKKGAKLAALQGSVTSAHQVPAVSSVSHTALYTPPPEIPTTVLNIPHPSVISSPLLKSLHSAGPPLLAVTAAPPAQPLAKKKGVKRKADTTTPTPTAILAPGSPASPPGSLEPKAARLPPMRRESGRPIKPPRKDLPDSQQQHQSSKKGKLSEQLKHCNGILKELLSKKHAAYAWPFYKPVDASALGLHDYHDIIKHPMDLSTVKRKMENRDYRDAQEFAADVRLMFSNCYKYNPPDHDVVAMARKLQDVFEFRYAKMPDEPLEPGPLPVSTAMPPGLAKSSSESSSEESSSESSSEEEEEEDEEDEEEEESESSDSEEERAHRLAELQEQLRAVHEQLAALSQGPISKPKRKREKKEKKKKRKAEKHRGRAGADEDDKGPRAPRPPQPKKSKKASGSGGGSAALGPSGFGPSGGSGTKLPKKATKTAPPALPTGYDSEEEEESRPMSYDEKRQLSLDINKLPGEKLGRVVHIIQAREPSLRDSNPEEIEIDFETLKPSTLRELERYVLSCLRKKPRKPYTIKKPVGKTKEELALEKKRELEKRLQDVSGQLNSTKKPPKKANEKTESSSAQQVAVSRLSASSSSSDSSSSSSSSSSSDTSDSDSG

[8] = molecular target: Bromodomain-containing protein 3 (Homo sapiens, UniProt Q15059); assay: Inhibition of His-tagged recombinant BRD3 (unknown origin) (11 to 166 residues) using SGRGK(Ac)GGK(Ac)GLGK(Ac)GGAK(Ac)RHRK(Biotin)-OH as substrate measured after 1 hr by HTRF assay
Bromodomain-containing protein 3, sequence (Q15059 whole entry, the tested form may be a part): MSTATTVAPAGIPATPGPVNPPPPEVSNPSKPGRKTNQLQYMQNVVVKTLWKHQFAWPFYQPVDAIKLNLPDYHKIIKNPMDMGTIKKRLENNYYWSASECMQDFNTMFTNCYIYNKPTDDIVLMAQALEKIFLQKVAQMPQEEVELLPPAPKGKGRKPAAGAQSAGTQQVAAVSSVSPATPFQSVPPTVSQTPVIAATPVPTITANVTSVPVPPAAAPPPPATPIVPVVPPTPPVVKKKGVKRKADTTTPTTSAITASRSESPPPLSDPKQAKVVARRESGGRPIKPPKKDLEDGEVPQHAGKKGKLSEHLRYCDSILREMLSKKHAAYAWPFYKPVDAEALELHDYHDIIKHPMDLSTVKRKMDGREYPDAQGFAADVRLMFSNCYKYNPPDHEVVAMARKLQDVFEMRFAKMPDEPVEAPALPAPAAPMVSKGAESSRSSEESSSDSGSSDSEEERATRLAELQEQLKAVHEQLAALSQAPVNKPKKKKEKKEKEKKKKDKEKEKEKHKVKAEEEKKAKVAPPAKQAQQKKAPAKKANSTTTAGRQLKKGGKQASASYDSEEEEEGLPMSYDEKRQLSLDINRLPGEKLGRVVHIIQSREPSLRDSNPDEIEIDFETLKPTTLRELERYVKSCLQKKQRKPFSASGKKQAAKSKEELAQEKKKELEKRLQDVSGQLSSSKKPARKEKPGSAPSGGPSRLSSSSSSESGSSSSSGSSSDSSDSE

[9] = molecular target: Bromodomain testis-specific protein (Homo sapiens, UniProt Q58F21); assay: Inhibition of His-tagged recombinant BRDT (unknown origin) (21 to 153 residues) using SGRGK(Ac)GGK(Ac)GLGK(Ac)GGAK(Ac)RHRK(Biotin)-OH as substrate measured after 1 hr by HTRF assay
[10] = molecular target: T1, Bromodomain and PHD finger-containing protein 3 (Homo sapiens, UniProt Q9ULD4); assay: Inhibition of His-tagged recombinant BRPF3 (unknown origin) (11 to 188 residues) using SGRGK(Ac)GGK(Ac)GLGK(Ac)GGAK(Ac)RHRK(Biotin)-OH as substrate measured after 1 hr by HTRF assay
T1 sequence (Q9ULD4 whole entry): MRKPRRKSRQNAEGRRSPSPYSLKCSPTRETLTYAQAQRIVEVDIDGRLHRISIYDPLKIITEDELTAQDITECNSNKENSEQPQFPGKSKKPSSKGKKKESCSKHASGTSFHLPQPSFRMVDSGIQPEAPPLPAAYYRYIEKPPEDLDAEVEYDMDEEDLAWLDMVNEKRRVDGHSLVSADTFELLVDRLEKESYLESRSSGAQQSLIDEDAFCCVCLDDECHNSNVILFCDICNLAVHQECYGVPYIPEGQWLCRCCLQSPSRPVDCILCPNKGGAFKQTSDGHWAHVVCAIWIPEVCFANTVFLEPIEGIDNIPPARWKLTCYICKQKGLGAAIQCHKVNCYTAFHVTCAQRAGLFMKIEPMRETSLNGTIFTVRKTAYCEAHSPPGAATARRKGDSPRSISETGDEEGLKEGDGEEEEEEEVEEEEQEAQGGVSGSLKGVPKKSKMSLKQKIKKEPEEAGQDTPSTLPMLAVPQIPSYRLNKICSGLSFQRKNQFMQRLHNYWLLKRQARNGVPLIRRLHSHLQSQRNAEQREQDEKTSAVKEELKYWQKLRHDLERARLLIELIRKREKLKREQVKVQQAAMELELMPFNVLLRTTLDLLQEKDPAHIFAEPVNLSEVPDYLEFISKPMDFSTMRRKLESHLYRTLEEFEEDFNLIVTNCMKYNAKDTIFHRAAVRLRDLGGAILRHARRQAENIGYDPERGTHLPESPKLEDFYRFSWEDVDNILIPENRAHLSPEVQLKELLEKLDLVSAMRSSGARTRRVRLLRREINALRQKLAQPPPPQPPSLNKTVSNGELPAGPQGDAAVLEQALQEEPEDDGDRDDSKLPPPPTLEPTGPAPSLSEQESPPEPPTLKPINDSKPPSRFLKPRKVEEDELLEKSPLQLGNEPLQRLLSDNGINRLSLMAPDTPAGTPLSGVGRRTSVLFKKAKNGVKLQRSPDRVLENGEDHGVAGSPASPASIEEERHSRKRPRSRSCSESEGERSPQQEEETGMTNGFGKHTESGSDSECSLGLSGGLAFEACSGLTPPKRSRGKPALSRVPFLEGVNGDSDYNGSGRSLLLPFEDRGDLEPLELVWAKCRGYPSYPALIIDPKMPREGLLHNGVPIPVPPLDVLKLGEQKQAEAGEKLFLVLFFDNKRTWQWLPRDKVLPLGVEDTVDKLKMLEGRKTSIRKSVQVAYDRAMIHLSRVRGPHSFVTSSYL

[11] = molecular target: T2, Bromodomain-containing protein 1 (Homo sapiens, UniProt O95696); assay: Inhibition of His-tagged recombinant BRD1 (unknown origin) (11 to 190 residues) using SGRGK(Ac)GGK(Ac)GLGK(Ac)GGAK(Ac)RHRK(Biotin)-OH as substrate measured after 1 hr by HTRF assay
T2 sequence (O95696 whole entry): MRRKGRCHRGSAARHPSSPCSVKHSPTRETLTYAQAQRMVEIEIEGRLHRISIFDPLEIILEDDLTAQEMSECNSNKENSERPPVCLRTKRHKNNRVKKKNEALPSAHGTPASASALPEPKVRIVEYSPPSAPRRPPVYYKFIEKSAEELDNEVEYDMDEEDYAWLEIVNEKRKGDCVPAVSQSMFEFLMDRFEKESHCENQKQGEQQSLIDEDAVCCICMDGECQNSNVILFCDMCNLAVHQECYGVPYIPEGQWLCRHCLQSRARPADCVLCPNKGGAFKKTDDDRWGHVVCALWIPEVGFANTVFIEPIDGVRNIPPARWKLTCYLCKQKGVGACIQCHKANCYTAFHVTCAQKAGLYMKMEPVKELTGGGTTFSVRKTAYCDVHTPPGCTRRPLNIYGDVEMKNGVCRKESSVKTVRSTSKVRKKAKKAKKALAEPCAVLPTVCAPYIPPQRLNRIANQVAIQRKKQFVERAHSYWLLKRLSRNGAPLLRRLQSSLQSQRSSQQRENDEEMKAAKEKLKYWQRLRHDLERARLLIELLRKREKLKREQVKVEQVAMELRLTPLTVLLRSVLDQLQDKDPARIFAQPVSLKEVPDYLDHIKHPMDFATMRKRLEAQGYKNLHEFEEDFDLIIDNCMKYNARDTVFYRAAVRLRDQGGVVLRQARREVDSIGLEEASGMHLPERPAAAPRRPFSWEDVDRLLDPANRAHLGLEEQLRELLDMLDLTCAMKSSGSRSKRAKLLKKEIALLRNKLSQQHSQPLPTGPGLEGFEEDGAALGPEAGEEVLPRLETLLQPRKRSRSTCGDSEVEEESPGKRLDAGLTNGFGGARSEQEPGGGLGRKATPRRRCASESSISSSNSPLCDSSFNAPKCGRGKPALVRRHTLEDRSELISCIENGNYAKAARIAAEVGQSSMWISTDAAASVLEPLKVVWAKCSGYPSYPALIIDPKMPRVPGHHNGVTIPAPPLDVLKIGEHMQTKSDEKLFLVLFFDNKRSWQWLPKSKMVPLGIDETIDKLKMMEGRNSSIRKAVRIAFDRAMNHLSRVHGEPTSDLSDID

[12] = Clearance in ICR mouse at 2 mg/kg, iv measured at 0.083 to 24 hrs by LC-MS/MS analysis; type: ADME, organism-based; details: in vivo, time 0.083-24 hrs
[13] = Half life in ICR mouse at 30 mg/kg, po measured at 0.083 to 24 hrs by LC-MS/MS analysis; type: ADME, organism-based; details: in vivo, time 0.083-24 hrs
[14] = Tmax in ICR mouse at 30 mg/kg, po measured at 0.083 to 24 hrs by LC-MS/MS analysis; type: ADME, organism-based; details: in vivo, time 0.083-24 hrs
[15] = Cmax in ICR mouse at 30 mg/kg, po measured at 0.083 to 24 hrs by LC-MS/MS analysis; type: ADME, organism-based; set-up: time 0.083-24 hrs, dose 30 mg/kg, route po; details: in vivo
[16] = AUC (0 to t) in ICR mouse at 30 mg/kg, po measured at 0.083 to 24 hrs by LC-MS/MS analysis; type: ADME, organism-based; set-up: time lower 0.083 hrs, dose 30 mg/kg, time upper 24 hrs, route po; details: in vivo
[17] = AUC (0 to infinity) in ICR mouse at 30 mg/kg, po measured at 0.083 to 24 hrs by LC-MS/MS analysis; type: ADME, organism-based; set-up: time lower 0.083 hrs, dose 30 mg/kg, time upper 24 hrs, route po; details: in vivo
[18] = Oral bioavailability in ICR mouse at 30 mg/kg measured at 0.083 to 24 hrs by LC-MS/MS analysis; type: ADME, organism-based; details: in vivo, time 0.083-24 hrs
[19] = Toxicity in mouse assessed as effect on aspartate aminotransferase level in serum at 30 mg/kg/day; type: organism-based; details: in vivo
[20] = Toxicity in mouse assessed as effect on alanine aminotransferase level in serum at 30 mg/kg/day; type: organism-based; details: in vivo
[21] = Toxicity in mouse assessed as effect on serum creatinine level at 30 mg/kg/day; type: organism-based; details: in vivo
[22] = Toxicity in mouse assessed as effect on serum urea level at 30 mg/kg/day; type: organism-based; details: in vivo
[23] = Toxicity in mouse assessed as pathological changes in spleen at 30 mg/kg/day by H and E staining method; type: organism-based; details: in vivo
[24] = Toxicity in mouse assessed as pathological changes in heart at 30 mg/kg/day by H and E staining method; type: organism-based; details: in vivo
[25] = Toxicity in mouse assessed as pathological changes in lung at 30 mg/kg/day by H and E staining method; type: organism-based; details: in vivo
[26] = Toxicity in mouse assessed as pathological changes in liver at 30 mg/kg/day by H and E staining method; type: organism-based; details: in vivo

CCCC(C)n1ccc2ccc(C3=CNC(=O)C4NC=CC34)cc21 (stereo not drawn)
IC50 [1]: 578 nM

Cc1noc(C)c1-c1ccc2ccn(Cc3ccc(C(F)(F)F)cc3)c2c1
IC50 [1]: > 3000 nM

O=C1NC=C(c2ccc3ccn(Cc4ccc(F)cc4)c3c2)C2C=CNC12 (stereo not drawn)
IC50 [1]: 417 nM

Cc1noc(C)c1-c1ccc2ccn(Cc3ccccn3)c2c1
IC50 [1]: 481 nM

COc1cc(Cn2ccc3ccc(C4=CNC(=O)C5NC=CC45)cc32)cc(OC)c1 (stereo not drawn)
IC50 [1]: 559 nM

Cc1noc(C)c1-c1ccc2ccn(C3CCCC3)c2c1
IC50 [1]: > 3000 nM

Cc1noc(C)c1-c1ccc2ccn(Cc3cc(F)cc(F)c3)c2c1
IC50 [1]: > 3000 nM

O=C1NC=C(c2ccc3ccn(Cc4ccccc4)c3c2)C2C=CNC12 (stereo not drawn)
IC50 [1]: 471 nM

Cc1cn(Cc2ccccc2)c2cc(-c3cn(C)c(=O)c4[nH]ccc34)ccc12
IC50 [1]: 514 nM

O=C1NC=C(c2ccc3ccn(Cc4cc(F)cc(F)c4)c3c2)C2C=CNC12 (stereo not drawn)
IC50 [1]: 347 nM

Cc1sc2c(c1C)C(c1ccc(Cl)cc1)=N[C@@H](C(=O)OC(C)(C)C)c1nnc(C)n1-2
IC50 [1]: 92 nM
Activity (Mus musculus [2]): Active
Activity (Mus musculus [3]): Active
Activity (Mus musculus [4]): Active
Activity (Mus musculus [5]): Active

Cc1cn(Cc2cc(F)cc(F)c2)c2cc(C3=CN(C)C(=O)C4NC=CC34)ccc12 (stereo not drawn)
IC50 [1]: 419 nM

Cc1noc(C)c1-c1ccc2ccn(C(C)c3ccccc3)c2c1 (stereo not drawn)
IC50 [1]: > 3000 nM

Cc1noc(C)c1-c1ccc2c(C)cn(Cc3cc(F)cc(F)c3)c2c1
IC50 [1]: > 3000 nM

COc1cc(Cn2ccc3ccc(-c4c(C)noc4C)cc32)cc(OC)c1
IC50 [1]: > 3000 nM

CCCC(C)n1ccc2ccc(-c3c(C)noc3C)cc21 (stereo not drawn)
IC50 [1]: 2440 nM

Cn1cc(-c2ccc3ccn(Cc4ccccn4)c3c2)c2cc[nH]c2c1=O
Vd [6]: 2.08 L/kg
IC50 [1]: 107 nM
IC50 [7]: 718 nM
IC50 [8]: 502 nM
IC50 [9]: > 1000 nM
IC50 [10]: > 1000 nM
IC50 [11]: > 1000 nM
clearance [12]: 125 mL/min/kg
half-life [13]: 80.4 min
Tmax [14]: 11.4 min
Cmax [15]: 390 ng/mL
AUC(0-t) [16]: 319 ng·h/mL
AUC(0-inf) [17]: 323 ng·h/mL
bioavailability [18]: 7.91%
Activity [19]: Non-Toxic
Activity [20]: Non-Toxic
Activity [21]: Non-Toxic
Activity [22]: Non-Toxic
Activity [23]: Non-Toxic
Activity [24]: Non-Toxic
Activity [25]: Non-Toxic
Activity [26]: Non-Toxic

CCC(C)n1ccc2ccc(-c3c(C)noc3C)cc21 (stereo not drawn)
IC50 [1]: > 3000 nM

CC(c1ccccc1)n1ccc2ccc(-c3cn(C)c(=O)c4[nH]ccc34)cc21 (stereo not drawn)
IC50 [1]: 504 nM

Cc1noc(C)c1-c1ccc2c(C)cn(Cc3ccccc3)c2c1
IC50 [1]: > 3000 nM

Cc1noc(C)c1-c1ccc2ccn(Cc3ccccc3)c2c1
IC50 [1]: 2650 nM

Cc1noc(C)c1-c1ccc2ccn(Cc3ccc(F)cc3)c2c1
IC50 [1]: > 3000 nM

CCC(C)n1ccc2ccc(-c3cn(C)c(=O)c4[nH]ccc34)cc21 (stereo not drawn)
IC50 [1]: 674 nM
